Values of other authors in paper PMC5915681 (PLoS ONE, 2018).

Design: method as in PMID 24450858, PMID 24450857

In the case of CC[C@H](Nc1ncnc2[nH]cnc12)c1nc2cccc(F)c2c(=O)n1-c1ccccc1 [idelalisib, Idelalisib], the side effects is listed as “hepatotoxicity and gastrointestinal toxicity”.
